Assays:
[1] = tested on: human hair follicle dermal papilla cells (HHFDPCs); test: Proliferation of human hair follicle dermal papilla cells (MTT); assay type: cell-based; details: peptide at 500 nM, 5 μM and 50 μM, 72 hours, absorbance 540 nm, FIG. 1
Procedure: The effect of the peptide prepared in Preparation Example 1 above on the proliferation of human hair follicle dermal papilla cells (HHFDPCs) was tested.
HHFDPCs were seeded in a 96-well cell culture plate at a density of 4×10^3 cells/well and cultured for 24 hours under mesenchymal stem cell complete media conditions. Then, the medium was replaced with serum-free mesenchymal stem cell medium and cultured for additional 24 hours. The cultured cell culture was treated with the peptide prepared in Preparation Example 1 above at 500 nM, 5 μM, and 50 μM, respectively, treated with 1 μM VEGF to serve as a positive control, and not treated with anything to serve as a negative control (con), and these cultures were cultured at 37° C. for additional 72 hours. Thereafter, 10 μL of MTT solution (5 mg/mL) was added thereto, and the mixture was incubated in a CO2 incubator at 37° C. for 4 hours, the medium was removed, and 100 μL of DMSO was added thereto and shaken for 10 minutes. Finally, the absorbance was measured at a wavelength of 540 nm using a spectrophotometer (Molecular Devices (SpectraMax iD3, CA, USA)).

Akt = test: Western blot of phospho-AKT in HHFDPCs; assay type: cell-based, human; details: peptide at 500 nM, 5 μM and 50 μM, 24 hours, FIG. 2
Procedure: (§1) The effect of the peptide prepared in Preparation Example 1 above on the activation of proliferation-related signaling molecules in human hair follicle dermal papilla cells (HHFDPCs) was confirmed by Western blot method.
(§2) HHFDPCs were seeded in a 6-well cell culture plate at a density of 4×10^5 cells/well and cultured for 24 hours under mesenchymal stem cell complete media conditions. Then, the medium was replaced with serum-free mesenchymal stem cell medium and cultured for additional 24 hours. The cultured cell culture was treated with the peptide prepared in Preparation Example 1 above at 500 nM, 5 μM, and 50 μM, respectively, 1 μM of Minoxidil (MNX) and 1 μM of VEGF were treated to serve as a positive control, and not treated with anything to serve as a negative control (con), and the cultures treated with these materials were cultured at 37° C. for additional 24 hours. After washing each culture with PBS, the cells were lysed by treatment with lysis buffer to obtain a cell lysate. Equal amounts of protein samples were prepared by BCA quantification of cell lysates. The prepared protein samples were subjected to electrophoresis using 10% SDS-PAGE. […] The resultant was washed 3 times for 15 minutes each with 0.1% PBS-T (0.1% Tween-20 in PBS), treated with ECL solution (GE Healthcare, USA), and detected with a film.

[2] = tested on: extracellular-regulated kinase (ERK); test: Western blot of phospho-ERK in HHFDPCs; assay type: cell-based, human; details: peptide at 500 nM, 5 μM and 50 μM, 24 hours, FIG. 2
Procedure: as §1, §2

beta-catenin = test: Western blot of nuclear beta-catenin in HHFDPCs; assay type: cell-based, human; details: peptide at 500 nM, 5 μM and 50 μM, 24 hours, nuclear protein Western blot, FIG. 3
Procedure: The effect of the peptide prepared in Preparation Example 1 above on the activation of beta-catenin in human hair follicle dermal papilla cells (HHFDPCs) was confirmed by Western blot method.
HHFDPCs were seeded in a 6-well cell culture plate at a density of 4×10^5 cells/well and cultured for 24 hours under mesenchymal stem cell complete media conditions. Then, the medium was replaced with serum-free mesenchymal stem cell medium and cultured for additional 24 hours. The cultured cell culture was treated with the peptide prepared in Preparation Example 1 above at 500 nM, 5 μM, and 50 μM, respectively, and treated with 10 ng/mL of rhWnt-3a (recombinant human Wnt-3a protein, R&D systems (MN, USA) to serve as a positive control, and not treated with anything to serve as a negative control (con). The cultures treated with these materials were incubated at 37° C. for additional 24 hours. After washing each culture with PBS, nuclear proteins were isolated using a nuclear protein extraction kit (Thermo scientific, USA), and an equal amount of protein sample was prepared by BCA quantification. The prepared protein samples were subjected to electrophoresis using 10% SDS-PAGE. […] The resultant was washed 3 times for 15 minutes each with 0.1% PBS-T (0.1% Tween-20 in PBS), treated with ECL solution (GE Healthcare, USA), and detected with a film.

LEF-1 = test: RT-PCR of LEF-1 gene expression in HHFDPCs; assay type: cell-based, human; details: peptide at 500 nM, 5 μM and 50 μM, 24 hours, FIG. 4
Procedure: (§3) The effect of the peptide prepared in Preparation Example 1 above on the expression levels of lymphoid enhancer-binding factor 1 (LEF-1) and c-Myc, which are downstream genes of beta-catenin, in human hair follicle dermal papilla cells (HHFDPCs) was determined by the RT-PCR method.
(§4) HHFDPCs were seeded in a 6-well cell culture plate at a density of 4×10^5 cells/well and cultured for 24 hours under mesenchymal stem cell complete media conditions. Then, the medium was replaced with serum free mesenchymal stem cell medium and cultured for additional 24 hours. The cultured cell culture was treated with the peptide prepared in Preparation Example 1 above at 500 nM, 5 μM, and 50 μM, respectively, and treated with 10 ng/mL of rhWnt-3a (recombinant human Wnt-3a protein, R&D systems (MN, USA) to serve as a positive control, and not treated with anything to serve as a negative control (con), and each was cultured at 37° C. for additional 24 hours. After washing each culture with PBS, RNA was isolated therefrom by treatment with 300 μL of eaay blue (Intron, South Korea). The isolated RNA was quantified using Nano drop, and then subjected to cDNA synthesis using a cDNA synthesis kit (Enzynomics, South Korea). […] The PCR reaction product was electrophoresed on a 1.5% agarose gel, and the bands were detected using the Bio-Rad Gel Image System.

c-Myc = test: RT-PCR of c-Myc gene expression in HHFDPCs; assay type: cell-based, human; details: peptide at 500 nM, 5 μM and 50 μM, 24 hours, FIG. 4
Procedure: as §3, §4

DKK-1 = test: Western blot of DHT-induced DKK-1 in HHFDPCs; assay type: cell-based, human; details: peptide at 500 nM, 5 μM and 50 μM with 100 nM DHT, 24 hours, FIG. 5
Source text: It is known that in hair follicles, dihydrotestosterone (DHT) promotes the expression of Dickkopf-1 (DKK-1), and DKK-1 induced by DHT inhibits the proliferation of keratinocytes in hair follicles and causes their apoptosis, thereby promoting hair loss (J of Invest Dermatolo. 2008, February, 128(2), pp. 262-269.). The effect of the peptide prepared in Preparation Example 1 above on the expression level of the hair loss-inducing protein DKK-1 in human hair follicle dermal papilla cells (HHFDPCs) was confirmed by Western blot method.
HHFDPCs were seeded in a 6-well cell culture plate at a density of 4×10^5 cells/well and cultured for 24 hours under mesenchymal stem cell complete media conditions. Then, the medium was replaced with serum-free mesenchymal stem cell medium and cultured for additional 24 hours. The cultured cell culture was treated with 500 nM, 5 μM, and 50 μM of the peptide prepared in Preparation Example 1 above, respectively. treated with 5 μM of finasteride to serve as a positive control, and not treated with anything to serve as a negative control group (con). […] Equal amounts of protein samples were prepared by BCA quantification of cell lysates. […] The resultant was washed 3 times for 15 minutes each with 0.1% PBS-T (0.1% Tween-20 in PBS), treated with ECL solution (GE Healthcare, USA), and detected with a film.

Ha3-II = test: RT-PCR of Ha3-II gene expression in HHORSCs; assay type: cell-based, human; details: peptide at 500 nM, 5 μM and 50 μM, 24 hours, FIG. 6
Procedure: (§5) The effect of the peptide prepared in Preparation Example 1 above on the activation of human hair outer root sheath cells (HHORSCs) was confirmed by measuring the expression of cytokeratin proteins.
(§6) HHORSCs were seeded in a 96-well cell culture plate at a density of 4×10^3 cells/well and cultured for 24 hours under mesenchymal stem cell complete media conditions. Then, the medium was replaced with serum free mesenchymal stem cell medium and cultured for additional 24 hours. The cultured cell culture was treated with 500 nM, 5 μM, and 50 μM of the peptide prepared in Preparation Example 1 above, respectively, and treated with 100 nM of epidermal growth factor (EGF) as a positive control, and negative when not treated with anything to serve as a negative control (con), and these cultures were cultured at 37° C. for 24 hours. After washing each culture with PBS, RNA was isolated by treatment with 300 μL of eaay blue (Intron, South Korea). The isolated RNA was quantified using Nano drop, and then subjected to cDNA synthesis using a cDNA synthesis kit (Enzynomics, South Korea). Then, a PCR reaction was performed using the primers shown in Table 3 below and a PCR premix (Enzynomics, South Korea). The PCR reaction product was electrophoresed on a 1.5% agarose gel, and the bands were detected using the Bio-Rad Gel Image System.

Keratin 5 = test: RT-PCR of Keratin 5 gene expression in HHORSCs; assay type: cell-based, human; details: peptide at 500 nM, 5 μM and 50 μM, 24 hours, FIG. 6
Procedure: as §5, §6

Keratin 14 = test: RT-PCR of Keratin 14 gene expression in HHORSCs; assay type: cell-based, human; details: peptide at 500 nM, 5 μM and 50 μM, 24 hours, FIG. 6
Procedure: as §5, §6

Keratin 19 = test: RT-PCR of Keratin 19 gene expression in HHORSCs; assay type: cell-based, human; details: peptide at 500 nM, 5 μM and 50 μM, 24 hours, FIG. 6
Procedure: as §5, §6

Sequence: LKRYKHLV (Leu-Lys-Arg-Tyr-Lys-His-Leu-Val) [peptide of Preparation Example 1]
- proliferation of HHFDPC compared to the negative control (con) [1]: promoted
- phosphorylation of Akt (Akt): increased
- phosphorylation of extracellular-regulated kinase (ERK) [2]: increased
- beta-catenin activation and movement to the nucleus (beta-catenin): increased
- gene expression of LEF-1 (LEF-1): increased
- gene expression of c-Myc (c-Myc): increased
- expression of DKK-1 induced by DHT treatment (DKK-1): reduced in a concentration-dependent manner
- gene expression of Ha3-II (Ha3-II): increasing
- gene expression of Keratin 5 (Keratin 5): increasing
- gene expression of Keratin 14 (Keratin 14): increasing
- gene expression of Keratin 19 (Keratin 19): increasing
